Laboratory results taken from US7687465B2, “Therapeutic cancer vaccine” (Kraeftens Bekaempelse, priority 2003, dated 2010).

Molecular target: T1, HLA-A2 (Homo sapiens, UniProt P04439, D140Y/D185E/D98H/E176V/E277Q/G131W/G231S/I119V/I121R/I166T/I218V/L300P/L318F/N151K/N90K/P208A/P217A/Q86G/Q94H/R138H/R169H/T345S)
T1 construct: stabilization of the class 1 molecule after loading of peptide to the peptide transporter deficient cell line T2; endogenous in cells; host or cells: T2 (TAP-deficient human cell line), metabolically labelled with [35S]-methionine and lysed
Test: Assembly assay for peptide binding to class I MHC molecules
Settings: concentration of the peptide required for half maximal binding to HLA-A2; read-out: C50
Method: Assembly assays for binding of the synthetic peptides to class I MHC molecules metabolically labeled with [^35S]-methionine can be carried out as described below. It will be appreciated by the person skilled in the art that the protocol may be adopted for any peptide and any class I MHC molecule.
Briefly, TAP deficient cells were metabolically labeled with [^35S]-methionine (Amersham, Freiburg, Germany). The cells were lyzed in 0.5 ml lysis buffer (150 mM NaCl, 50 mM TrisHCl, 0.5% NP-40 (Fluka, Buchs, Switzerland), 5 mM EDTA, pH 7.5) with 0.5% Mega-9 (Sigma, St. Louis, USA) in the presence of protease inhibitors (2 mM PMSF, 5 mM iodoacetamide, 2 μg/ml pepstatin, 2 μg/ml leupeptin) with or without synthetic peptide (for a list of positive control peptides, see Table 2).
After 20 min of incubation, the cell nuclei were removed by centrifugation (5 min, 10,000 g) and 50 μl (10% v/v) freshly washed Staphylococcus aureus organisms (Pansorbin, Calbiochem, Nottingham, UK). The next day Pansorbin was removed by centrifugation (12 min, 16,000 g) and the appropriate monoclonal antibody was added at a final concentration of 10 μg/ml, incubated for 90 min, followed by addition of protein A-Sepharose (75 μl, 10% v/v) and incubation for 1 h. The beads were washed 4 times and stored at −20° C. until analysis by electrophoresis.
In the case of an assembly assay with the HLA class I-specific conformation-dependent monoclonal antibody W6/32, samples were eluted in reducing buffer (9.5 M urea, 2% NP-40, 5% 2-mercaptoethanol, 2% Ampholines, pH range 3.5-9.5 (Pharmacia Biotech, Uppsala, Sweden)) and focused for 16 h at 880 V on 5.5% polyacrylamide isoelectric focusing (IEF) gels^20,39.
Samples from assembly assays with allele-specific antibodies were eluted by boiling (5 min) in SDS reducing buffer (50 mM TrisHCl pH 6.8, 2% SDS, 5% 2-mercaptoethanol, 10% glycerol, 2.5% bromophenol blue) and electrophorezed on 12% SDS-PAGE gels (1 h at 200 V). All gels were fixed in 10% acetic acid with 5% methanol and dried onto 3 MM paper (Whatman, Maidstone, UK). MHC heavy chain bands were quantified using the Imagequant Phosphorimager program (Molecular Dynamics, Sunnyvale, Calif., USA). The intensity of the band is directly related to the amount of peptide-bound class I MHC complex recovered during the assay. C50 value (μM) as the concentration of the peptide required for half maximal binding to MHC may thus be determined. The binding affinities of the analysed peptides are determined according to their efficiency of stabilising the HLA class I molecules. The binding affinity is represented as the peptide concentration required to reach half-maximal stabilistation of appropriate HLA-molecule.
Assembly assays for binding of the synthetic peptides to class I MHC molecules metabolically labeled with [^35S]-methionine were carried out as described^15,16. The assembly assay is based on stabilization of the class 1 molecule after loading of peptide to the peptide transporter deficient cell line T2. Subsequently correctly folded stable MHC heavy chains are immunoprecipitated using conformation-dependent antibodies. After IEF electrophoresis, gels were exposed to phosphorImager screens, and peptide binding was quantitated using the Imagequant PhosphorImager program (Molecular Dynamics, Sunnyvale, Calif.).

EC50: 1 µM
Structure (SMILES): CC(C)C[C@H](NC(=O)[C@@H](N)CCCNC(=N)N)C(=O)N[C@@H](CCC(N)=O)C(=O)N[C@@H](CCC(=O)O)C(=O)N[C@@H](CCC(=O)O)C(=O)N[C@@H](CCCNC(=N)N)C(=O)N[C@H](C(=O)N[C@@H](CS)C(=O)N[C@@H](CCCCN)C(=O)N[C@H](C(=O)O)C(C)C)[C@@H](C)O [ML-IAP245]
